# Measured values published in patent publication US20240336577A1, “PYRAZINE COMPOUND, AND METHOD OF PREPARATION AND USE THEREOF” (SHENZHEN OLIVE BIOPHARMACEUTICALS CO., LTD, priority 2020, published 2024).
# Columns and labels:
# [1] = system: 6-OHDA Parkinson's disease rats; experiment: APO-induced rotations in 6-OHDA Parkinson's disease rats; assay type: in vivo; conditions: APO-induced 6-OHDA rats, 2 weeks of treatment; different dosages of OLB-1, OLB-2; levodopa 25 mg/kg; FIG. 8
# Source text: There is no rotation in a sham-operated group, and there is no significant difference between the groups injected with 6-OHDA, and there are about 180 rotations. […] Data were presented as mean±SEM; n=9-10 per group. One-way ANOVA and multiple range test were adopted to show differences between the two groups. *p<0.05, **p<0.01 vs. before 6-OHDA group.
# 5*FAD mice [2] = experiment: Memory impairment in 5*FAD mice, electrical jumping (errors jumping off the platform); assay type: in vivo; conditions: 6-month-old 5*FAD mice treated 3 months, low and high dosage; FIG. 5
# Procedure: After 6-month-old 5*FAD mice were treated with OLB-1 and OLB-2 for 3 months, the number of errors that the mice jumped off the platform was detected by electrical jumping. 5*FAD mice were treated with low-dosage and high-dosage OLB-1 (low dosage: 2.31 mg/kg, 0.007 mmol/kg; high dosage: 11.70 mg/kg, 0.037 mmol/kg) and OLB-2 (low dosage: 2.3 mg/kg, 0.007 mmol/kg; high dosage: 11.67 mg/kg, 0.037 mmol/kg) and TMP (5.0 mg/kg, 0.037 mmol/kg, the same below). Data were presented as mean±SEM; n=10 per group. One-way ANOVA and multiple range test were adopted to show differences between the two groups. ***p<0.001 vs. WT group; #p<0.05, ##p<0.01 vs. 5*FAD group.
# [3] = system: SH—SY5Y neuroblastoma cells; experiment: LPS-induced inflammatory factors and oxidative stress-related proteins, ELISA kit; assay type: cell-based; conditions: 1 μg/mL LPS 24 h, mean±SEM, n=8; for TNF-alpha: differentiated SH-SY5Y, supernatant
# Procedure: The SH—SY5Y cells were recovered and cultured, and the cells in the logarithmic growth phase were taken. After 24 h of incubation, SH—SY5Y neuroblastoma cells were treated with 1 μM all-trans retinoic acid to induce differentiation, and then inoculated into a 6-well culture dish for 24 h of incubation. The medium was treated with chemicals feed at 0.2 μM (L) or 1 μM (H) and 1 μg/mL LPS for 24 h, a supernatant medium was aspirated, and changes of inflammatory factors and oxidative stress-related proteins were measured by an ELISA kit. Data were presented as mean±SEM; n=8 per group. One-way ANOVA and multiple range test were adopted to show differences between the two groups. a, p<0.05 vs. LPS group; b, p<0.01 vs. LPS group; c, p<0.001 vs. LPS group.
# SH—SY5Y cells = experiment: Neuroprotection against oxygen glucose deprivation (OGD), MTT assay; assay type: cell-based; conditions: 4 h OGD, FIG. 1
# Procedure: Neuroprotective effect of tetramethylpyrazine (TMP) and derivatives thereof was evaluated by MTT assay. Cells were incubated, log-phase cells were collected, a concentration of a cell suspension was adjusted, an MTT-containing medium was added after chemical treatment and 4 h of incubation with OGD, incubation was conducted for 4 h, the medium in the wells was carefully removed, and 150 μl of dimethyl sulfoxide (DMSO) was added to each well, shaken at a low speed for 10 min on a shaker to fully dissolve crystals, and an absorbance value of each well was measured at an OD (absorbance) value of 490 nm of an enzyme-linked immunosorbent assay instrument (at the same time, a zero adjustment well (medium, MTT, DMSO), a control well (cells, a drug dissolution medium with the same concentration, medium, MTT, DMSO)). Data were presented as mean±SEM; n=8 per group. One-way ANOVA and multiple range test were adopted to show differences between the two groups. a, p<0.001 vs. control group; b, p<0.05 vs. OGD group; c, p<0.001 vs. OGD group.
# db/db mice = experiment: Biochemical and metabolic indicators in db/db mice, 90 d administration; assay type: in vivo; conditions: once/d 90 d, Losartan 15 mg/kg/d, TMP 5.0 mg/kg, OLB-1 2.31 mg/kg, OLB-2 2.3 mg/kg, mean±SEM, n=6
# [4] = system: ALS (SOD-G93A) transgenic mice; experiment: Limb grip force test in ALS transgenic mice; assay type: in vivo; conditions: different dosages of OLB-1, OLB-2, riluzole 5 mg/kg, FIG. 7
# Procedure: The limb grip force test is used directly to assess muscle strength in mice. […] After the start of administration, the grip force of the mice was tested every two weeks, and the measurement was repeated three times for each mouse, and the maximum among the three results was taken as a maximum grip force of the mice. […] Data were presented as mean±SEM; n=10 per group. One-way ANOVA and multiple range test show differences between the two groups. **p<0.01, ***p<0.001 vs. WT (normal control) group; #p<0.05, ##p<0.01 vs. ALS (SOD-G93A) group.
# 5*FAD mice [5] = experiment: Pro-inflammatory factors in hippocampus of 5*FAD mice, ELISA; assay type: in vivo; conditions: 6-month-old 5*FAD mice treated 3 months, low and high dosage; FIG. 3 and FIG. 4
# Procedure: After 6-month-old 5*FAD mice were treated with OLB-1 and OLB-2 for 3 months, the levels of IL-1β (A) and TNFα (B) in mouse hippocampus were detected by ELISA. 5*FAD mice were treated with low-dosage and high-dosage OLB-1 (low dosage: 2.31 mg/kg, 0.007 mmol/kg; high dosage: 11.70 mg/kg, 0.037 mmol/kg, the same below) and OLB-2 (low dosage: 2.3 mg/kg, 0.007 mmol/kg; high dosage: 11.67 mg/kg, 0.037 mmol/kg, the same below) and TMP (5.0 mg/kg, 0.037 mmol/kg, the same below). Data were presented as mean±SEM; n=5 to 6 per group. One-way ANOVA and multiple range test were adopted to show differences between the two groups. **p<0.01, ***p<0.001 vs. WT group; #p<0.05, ##p<0.01, ###p<0.001 vs. 5*FAD group.
Compound,number of rotations [1],memory impairment (number of errors jumping off the platform) (5*FAD mice [2]),GSH-Px ([3]; compound 0.2 μM (L)),IL1 ([3]; compound 0.2 μM (L)),IL6 ([3]; compound 0.2 μM (L)),MDA ([3]; compound 0.2 μM (L)),SOD ([3]; compound 0.2 μM (L)),GSH-Px ([3]; compound 1 μM (H)),IL1 ([3]; compound 1 μM (H)),IL6 ([3]; compound 1 μM (H)),MDA ([3]; compound 1 μM (H)),SOD ([3]; compound 1 μM (H)),TNF-alpha ([3]; compound 0.2 μM (L)),TNF-alpha ([3]; compound 1 μM (H)),death of SH—SY5Y cells caused by OGD (SH—SY5Y cells),Creatinine (db/db mice),Urea (db/db mice),Urine albumin/creatinine (db/db mice),limb grip force [4],proinflammatory cytokine IL-1β in hippocampus (5*FAD mice [5]),further results
Cc1nc(C)c(CNC(=O)OCCc2ccc(O)cc2)nc1C [OLB-2],effectively reduce the number of rotations,significantly improve memory impairment,7.93 ± 1.05(b) umol/mg,10.34 ± 1.89(a) pg/ml,11.05 ± 1.87(a) pg/ml,15.75 ± 0.95(c) nmol/mg,12.13 ± 0.65(b) nU/ml,13.40 ± 1.24(c) umol/mg,7.37 ± 1.58(c) pg/ml,8.19 ± 1.24(c) pg/ml,9.37 ± 0.73(c) nmol/mg,15.16 ± 1.52(c) nU/ml,9.92 ± 1.44(b) pg/ml,6.99 ± 1.31(c) pg/ml,significantly reduce the death,46.28 ± 2.76(b) μmol/L,7.48 ± 0.35(c) mmol/L,477.51 ± 90.68(c) mg/g,effectively increase the limb force,significantly reduced,proinflammatory cytokine TNF-α in hippocampus (5*FAD mice [5]): significantly reduced
Cc1nc(C)c(COC(=O)OCCc2ccc(O)cc2)nc1C [OLB-1],effectively reduce the number of rotations,significantly improve memory impairment,8.39 ± 0.69(c) umol/mg,10.94 ± 1.48(a) pg/ml,11.60 ± 1.39(a) pg/ml,16.15 ± 1.26(c) nmol/mg,12.58 ± 0.72(b) nU/ml,13.71 ± 0.84(c) umol/mg,8.46 ± 1.33(b) pg/ml,7.97 ± 1.61(c) pg/ml,10.51 ± 0.74(c) nmol/mg,16.76 ± 0.38(c) nU/ml,9.64 ± 1.56(a) pg/ml,6.78 ± 1.67(c) pg/ml,significantly reduce the death,48.7 ± 3.68(a) μmol/L,8.03 ± 0.61(c) mmol/L,438.69 ± 83.23(c) mg/g,effectively increase the limb force,significantly reduced,proinflammatory cytokine TNF-α in hippocampus (5*FAD mice [5]): significantly reduced
